Experimental data as given in US20220046923A1, “HERBICIDAL CINNOLINIUM COMPOUNDS” (SYNGENTA CROP PROTECTION AG, priority 2018, published 2022).

Columns and labels:
Assay in all cases: Post-emergence efficacy, glasshouse spray test
Type in all cases: in vivo
[1] = tested on: Amaranthus palmeri (AMAPA); conditions: Amaranthus palmeri, post-emergence, 312 h; application rate 1000 g/Ha; evaluated after 13 days; read-out: Control of weed species AMAPA after post-emergence application (100=total damage to plant; 0=no damage to plant)
In short: (§1)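 Visual damage score 13 days after spraying, 0 (no damage) to 100 (plant killed). Pot-grown plants were treated at 14 days post-sowing with aqueous spray of compound formulated in acetone/IF50, diluted with 0.25% or 1% Empicol ESC70 plus 1% ammonium sulphate; glasshouse kept at 24/16 °C, 14 h light, 65% RH.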

[2] = tested on: Euphorbia heterophylla (EPHHL); conditions: Euphorbia heterophylla, post-emergence, 312 h; application rate 1000 g/Ha; evaluated after 13 days; read-out: Control of weed species EPHHL after post-emergence application (100=total damage to plant; 0=no damage to plant)
In short: as §1

[3] = tested on: Chenopodium album (CHEAL); conditions: Chenopodium album, post-emergence, 312 h; application rate 1000 g/Ha; evaluated after 13 days; read-out: Control of weed species CHEAL after post-emergence application (100=total damage to plant; 0=no damage to plant)
In short: as §1

Setaria faberi (SETFA) = conditions: Setaria faberi, post-emergence, 312 h; application rate 1000 g/Ha; evaluated after 13 days; read-out: Control of weed species SETFA after post-emergence application (100=total damage to plant; 0=no damage to plant)
In short: as §1

[4] = tested on: Echinochloa crus-galli (ECHCG); conditions: Echinochloa crus-galli, post-emergence, 312 h; application rate 1000 g/Ha; evaluated after 13 days; read-out: Control of weed species ECHCG after post-emergence application (100=total damage to plant; 0=no damage to plant)
In short: as §1

Lolium perenne (LOLPE) = conditions: Lolium perenne, post-emergence, 312 h; application rate 1000 g/Ha; evaluated after 13 days; read-out: Control of weed species LOLPE after post-emergence application (100=total damage to plant; 0=no damage to plant)
In short: as §1

[5] = tested on: Ipomoea hederacea (IPOHE); conditions: Ipomoea hederacea, post-emergence, 312 h; application rate 1000 g/Ha; evaluated after 13 days; read-out: Control of weed species IPOHE after post-emergence application (100=total damage to plant; 0=no damage to plant)
In short: as §1

Eleusine indica (ELEIN) = conditions: Eleusine indica, post-emergence, 312 h; application rate 1000 g/Ha; evaluated after 13 days; read-out: Control of weed species ELEIN after post-emergence application (100=total damage to plant; 0=no damage to plant)
In short: as §1

[6] = tested on: Digitaria sanguinalis (DIGSA); conditions: Digitaria sanguinalis, post-emergence, 312 h; application rate 1000 g/Ha; evaluated after 13 days; read-out: Control of weed species DIGSA after post-emergence application (100=total damage to plant; 0=no damage to plant)
In short: as §1

SMILES | pest or weed control at 1000 g/ha [1] | pest or weed control at 1000 g/ha [2] | pest or weed control at 1000 g/ha [3] | pest or weed control at 1000 g/ha (Setaria faberi (SETFA)) | pest or weed control at 1000 g/ha [4] | pest or weed control at 1000 g/ha (Lolium perenne (LOLPE)) | pest or weed control at 1000 g/ha [5] | pest or weed control at 1000 g/ha (Eleusine indica (ELEIN)) | pest or weed control at 1000 g/ha [6]
COC(=O)C[n+]1cc(C)c2cccc(C)c2n1 [Compound A7] | 30% | 20% | 30% | 10% | 10% | 20% | 10% | 20% | 0%
Cc1ccc2n[n+](CC(=O)[O-])cc(C)c2c1 [Compound A10] | 30% | 40% | 30% | 40% | 40% | 10% | 40% | 70% | 50%
